This passage reports T/C results from PubChem BioAssay AID296 (DTP/NCI, 2004).

The subject of the experiment is MX-1 breast xenograft, nude mice, tumor weight T/C. The experiment can be described thus: NCI In Vivo Anticancer Drug Screen. Data for tumor model Human Mammary Carcinoma MX-1 Xenograft (intrarenal inoculation) in NU/NU Swiss (nude) mice. The following applies: endpoint: mean tumor weight change, higher = larger tumour. The essentials: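 Mice carrying the implanted tumor receive either test agent or vehicle. Tumor size or survival is then recorded for both groups. Results are stated as the treated-to-control quotient.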
A general note: A xenograft is tissue or cells of one species grown in another, often human tumour cells in immunodeficient mice.

The mark [1] stands for this setting: dose: 300.0 mg/kg/injection, schedule: Q04DX003 (sc), vehicle: saline with Tween-80.
[2] abbreviates: dose: 600.0 mg/kg/injection, schedule: Q04DX003 (sc), vehicle: saline with Tween-80.
Where [3] appears, read: dose: 1200.0 mg/kg/injection, schedule: Q04DX003 (sc), vehicle: saline with Tween-80.
Where [4] appears, read: dose: 2400.0 mg/kg/injection, schedule: Q04DX003 (sc), vehicle: saline with Tween-80.
The mark [5] stands for this setting: dose: 600.0 mg/kg/injection, schedule: Q04DX003 (sc), vehicle: Klucel (hydroxypropylcellulose) (HPC).
Setting [6] is: dose: 2400.0 mg/kg/injection, schedule: Q04DX003 (sc), vehicle: Klucel (hydroxypropylcellulose) (HPC).
The mark [7] stands for this setting: dose: 300.0 mg/kg/injection, schedule: Q04DX003 (sc), vehicle: Klucel (hydroxypropylcellulose) (HPC).
Where [8] appears, read: dose: 1200.0 mg/kg/injection, schedule: Q04DX003 (sc), vehicle: Klucel (hydroxypropylcellulose) (HPC).
[9] abbreviates: dose: 200.0 mg/kg/injection, schedule: Q04DX003 (sc), vehicle: Klucel (hydroxypropylcellulose) (HPC).
[10] abbreviates: dose: 400.0 mg/kg/injection, schedule: Q04DX003 (sc), vehicle: Klucel (hydroxypropylcellulose) (HPC).
The mark [11] stands for this setting: dose: 800.0 mg/kg/injection, schedule: Q04DX003 (sc), vehicle: Klucel (hydroxypropylcellulose) (HPC).

Molecules are shown by their SMILES. Where “and” joins values, the source holds several entries; their conditions need not be identical. Equal entries are not always repeated. Results filed as inconclusive are left out.

On to `CCCCCC1c2cc(O)ccc2OC1N1CCOCC1` (stereo not given), for which the T/C under setting [1] is 72 % of control, the T/C under setting [2] is 71 % of control, the T/C under setting [3] is 90 % of control and the T/C under setting [4] was 67 % of control.

As for `COC(=O)NC1C(C)OC(OC2C/C=C(/C)C3C=CC4C(OC5CC(OC6CCC(OC7CC(O)C(OC8CCC(O)C(C)O8)C(C)O7)C(C)O6)C(OC(C)=O)C(C)O5)C(C)CC(C)C4C3(C)/C(O)=C3/C(=O)OC4(CC(C=O)=CC(O)C4/C=C\2C)C3=O)CC1(C)[N+](=O)[O-]` (stereo not given), the T/C (dose: 25.0 mg/kg/injection, schedule: Q04DX003 (sc), vehicle: other) was 95 % of control and the T/C (dose: 50.0 mg/kg/injection, schedule: Q04DX003 (sc), vehicle: other) is 71 % of control.

Turning to `C=C1C(=O)OC2CC(C)C3C4OC4C(O)C3(C)C(O)C12` (stereo not given), the T/C runs as follows: (dose: 100.0 mg/kg/injection, schedule: Q04DX003 (sc), vehicle: saline with Tween-80) 113 % of control; (dose: 200.0 mg/kg/injection, schedule: Q04DX003 (sc), vehicle: saline with Tween-80) 116 % of control; (dose: 400.0 mg/kg/injection, schedule: Q04DX003 (sc), vehicle: saline with Tween-80) 101 % of control.

Regarding `CCCCCC(=O)O[C@]1(C(C)=O)CC[C@H]2[C@@H]3CCC4=CC(=O)CC[C@]4(C)[C@H]3CC[C@@]21C`, the T/C under setting [5] was 98 % of control and the T/C under setting [6] is 85 % of control.

Take `CN(C1=NS(=O)(=O)N=C(N(C)c2ccccc2)O1)c1ccccc1`: the T/C runs as follows: under setting [7], 102 % of control; under setting [5], 110 % of control; under setting [8], 113 % of control; under setting [6], 106 % of control.

In the case of `Cc1cccc(OCC(O)CN2CC2)c1` (stereo not given), the T/C by setting is: (dose: 50.0 mg/kg/injection, schedule: Q04DX003 (ip), vehicle: saline with Tween-80) 70 % of control; (dose: 100.0 mg/kg/injection, schedule: Q04DX003 (ip), vehicle: saline with Tween-80) 58 % of control; (dose: 200.0 mg/kg/injection, schedule: Q04DX003 (ip), vehicle: saline with Tween-80) 43 % of control.

For `C=C(C(=O)O)C(N)C(=O)O` (stereo not given), the T/C reads like this: (dose: 300.0 mg/kg/injection, schedule: Q04DX003 (sc), vehicle: suspension in saline) 96 % of control; (dose: 600.0 mg/kg/injection, schedule: Q04DX003 (sc), vehicle: suspension in saline) 78 % of control; (dose: 1200.0 mg/kg/injection, schedule: Q04DX003 (sc), vehicle: suspension in saline) 88 % of control.

`O=C1[C@H]2CCC[C@H]2[C@H]2CCC[C@@H]12`: the T/C is 112 % of control under setting [1], 123 % of control under setting [2], 95 % of control under setting [3] and 92 % of control under setting [4].

As to `CN(Cc1cnc2nc(N)nc(N)c2n1)c1c(Cl)cc(C(=O)NC(CCC(=O)O)C(=O)O)cc1Cl` (stereo not given), the T/C runs as follows: (dose: 12.5 mg/kg/injection, schedule: Q01DX010 (sc), vehicle: Klucel (hydroxypropylcellulose) (HPC)) 86 % of control; (dose: 25.0 mg/kg/injection, schedule: Q01DX010 (sc), vehicle: Klucel (hydroxypropylcellulose) (HPC)) 44 % of control; (dose: 50.0 mg/kg/injection, schedule: Q01DX010 (sc), vehicle: Klucel (hydroxypropylcellulose) (HPC)) -25 % of control.

For the molecule `COc1cc2cc(c1Cl)N(C)C(=O)C[C@H](OC(=O)[C@H](C)N(C)C(C)=O)[C@]1(C)O[C@H]1[C@H](C)[C@@H]1C[C@@](O)(NC(=O)O1)[C@H](OC)C=C/C=C(\C)C2`, the T/C is 99 % of control (dose: 50.0 micrograms/kg/injection, schedule: Q01DX010 (sc), vehicle: Klucel (hydroxypropylcellulose) (HPC)); 67 % of control (dose: 100.0 micrograms/kg/injection, schedule: Q01DX010 (sc), vehicle: Klucel (hydroxypropylcellulose) (HPC)); -74 % of control (dose: 200.0 micrograms/kg/injection, schedule: Q01DX010 (sc), vehicle: Klucel (hydroxypropylcellulose) (HPC)).

Take `COC(=O)Nc1ccc(Cc2ccc(NC(=O)OC)cc2)cc1`: the T/C runs as follows: under setting [1], 87 % of control; under setting [2], 119 % of control; under setting [3], 65 % of control; under setting [4], 48 % of control.

As for `OCCO`, the T/C runs as follows: (dose: 8.0 % in 0.5 ml injection vol, schedule: Q04DX003 (sc), vehicle: water) 69 % of control; (dose: 16.0 % in 0.5 ml injection vol, schedule: Q04DX003 (sc), vehicle: water) 87 % of control.

Consider `O=c1[nH]c(=O)c2nc(-c3cccnc3)cnc2[nH]1`, for which, under setting [9], the T/C was 36 % of control.

As for `NC(C/[N+]([O-])=N/O)C(=O)O` (stereo not given), the T/C reads like this: (dose: 50.0 mg/kg/injection, schedule: Q01DX010 (sc), vehicle: saline) 98 % of control; (dose: 100.0 mg/kg/injection, schedule: Q01DX010 (sc), vehicle: saline) 62 % of control.

Take `CC1OC(=O)C(C(C)C)NC(=O)C(C(C)C)OC(=O)C(C(C)C)NC(=O)C(C)OC(=O)C(C(C)C)NC(=O)C(C(C)C)OC(=O)C(C(C)C)NC(=O)C(C)OC(=O)C(C(C)C)NC(=O)C(C(C)C)OC(=O)C(C(C)C)NC1=O` (stereo not given): the T/C reads like this: (dose: 2.5 mg/kg/injection, schedule: Q01DX010 (sc), vehicle: saline with Tween-80) 84 % of control; (dose: 5.0 mg/kg/injection, schedule: Q01DX010 (sc), vehicle: saline with Tween-80) 150 % of control; (dose: 10.0 mg/kg/injection, schedule: Q01DX010 (sc), vehicle: saline with Tween-80) 95 % of control and 112 % of control.

Take `CSc1nc(=O)[nH]nc1SCc1ccccc1`: the T/C was 100 % of control under setting [9]; 87 % of control under setting [10]; 69 % of control under setting [11]; 60 % of control (dose: 1600.0 mg/kg/injection, schedule: Q04DX003 (sc), vehicle: Klucel (hydroxypropylcellulose) (HPC)).

For `N#Cc1cn(C2OC(CO)C(O)C2O)c2ncnc(N)c12` (stereo not given), the T/C (dose: 0.5 mg/kg/injection, schedule: Q01DX010 (sc), vehicle: saline) was 172 % of control.

In the case of `Nc1ncnc2c1ccn2C1OC(CO)C(O)C1O` (stereo not given), the T/C (dose: 1.0 mg/kg/injection, schedule: Q01DX010 (sc), vehicle: Klucel (hydroxypropylcellulose) (HPC)) is 101 % of control; the T/C (dose: 2.0 mg/kg/injection, schedule: Q01DX010 (sc), vehicle: Klucel (hydroxypropylcellulose) (HPC)) was 157 % of control; the T/C (dose: 4.0 mg/kg/injection, schedule: Q01DX010 (sc), vehicle: Klucel (hydroxypropylcellulose) (HPC)) is 75 % of control.

Take `O=c1[nH]cnc2n[nH]nc12`: the T/C (dose: 100.0 mg/kg/injection, schedule: Q04DX003 (sc), vehicle: Klucel (hydroxypropylcellulose) (HPC)) was 54 % of control; the T/C under setting [9] was 27 % of control; the T/C under setting [10] is 48 % of control; the T/C under setting [11] is 31 % of control.

On to `CN1C(=O)NC(c2ccc(Cl)cc2)(c2ccc(Cl)cc2)C1=O`, for which the T/C is 90 % of control (dose: 50.0 mg/kg/injection, schedule: Q01DX010 (sc), vehicle: saline with Tween-80); 109 % of control (dose: 100.0 mg/kg/injection, schedule: Q01DX010 (sc), vehicle: saline with Tween-80); 60 % of control (dose: 200.0 mg/kg/injection, schedule: Q01DX010 (sc), vehicle: saline with Tween-80); 49 % of control (dose: 400.0 mg/kg/injection, schedule: Q01DX010 (sc), vehicle: saline with Tween-80).

For the molecule `CC(=O)OC1OC(=O)C(C)(C(C)=O)C1C` (stereo not given), the T/C by setting is: (dose: 5.0 mg/kg/injection, schedule: Q04DX003 (ip), vehicle: distilled water + alcohol) 85 % of control; (dose: 10.0 mg/kg/injection, schedule: Q04DX003 (ip), vehicle: distilled water + alcohol) 109 % of control; (dose: 20.0 mg/kg/injection, schedule: Q04DX003 (ip), vehicle: distilled water + alcohol) 35 % of control.

With `COC1C(O)C(C)OC(OC2C(Oc3cccc4c(O)c5c(=O)oc6ccc(C)c7c(=O)oc(c34)c5c67)OC(C)C(O)C2O)C1O` (stereo not given), the T/C under setting [7] was 90 % of control, the T/C under setting [5] is 94 % of control, the T/C under setting [8] is 70 % of control and the T/C under setting [6] was 49 % of control.

`NCCCC(N)(C(=O)O)C(F)F` (stereo not given): the T/C reads like this: (dose: 300.0 mg/kg/injection, schedule: Q04DX003 (sc), vehicle: distilled water + alcohol) 110 % of control; (dose: 600.0 mg/kg/injection, schedule: Q04DX003 (sc), vehicle: distilled water + alcohol) 83 % of control; (dose: 1200.0 mg/kg/injection, schedule: Q04DX003 (sc), vehicle: distilled water + alcohol) 73 % of control; (dose: 2400.0 mg/kg/injection, schedule: Q04DX003 (sc), vehicle: distilled water + alcohol) 112 % of control.
